Measurements: patent EP4818158A1, “BIARYL COMPOUND” (Kissei Pharmaceutical Co., Ltd., priority 2023, dated 2025)

biological target: T1, TSHR (Mus musculus, UniProt P47750); assay: not given; details: TSH-releasing hormone (TRH)-treated mice; cited from earlier work
T1 construct: host or cells: mice in vivo (endogenous thyroid TSHR)
T1 sequence (P47750 22-764): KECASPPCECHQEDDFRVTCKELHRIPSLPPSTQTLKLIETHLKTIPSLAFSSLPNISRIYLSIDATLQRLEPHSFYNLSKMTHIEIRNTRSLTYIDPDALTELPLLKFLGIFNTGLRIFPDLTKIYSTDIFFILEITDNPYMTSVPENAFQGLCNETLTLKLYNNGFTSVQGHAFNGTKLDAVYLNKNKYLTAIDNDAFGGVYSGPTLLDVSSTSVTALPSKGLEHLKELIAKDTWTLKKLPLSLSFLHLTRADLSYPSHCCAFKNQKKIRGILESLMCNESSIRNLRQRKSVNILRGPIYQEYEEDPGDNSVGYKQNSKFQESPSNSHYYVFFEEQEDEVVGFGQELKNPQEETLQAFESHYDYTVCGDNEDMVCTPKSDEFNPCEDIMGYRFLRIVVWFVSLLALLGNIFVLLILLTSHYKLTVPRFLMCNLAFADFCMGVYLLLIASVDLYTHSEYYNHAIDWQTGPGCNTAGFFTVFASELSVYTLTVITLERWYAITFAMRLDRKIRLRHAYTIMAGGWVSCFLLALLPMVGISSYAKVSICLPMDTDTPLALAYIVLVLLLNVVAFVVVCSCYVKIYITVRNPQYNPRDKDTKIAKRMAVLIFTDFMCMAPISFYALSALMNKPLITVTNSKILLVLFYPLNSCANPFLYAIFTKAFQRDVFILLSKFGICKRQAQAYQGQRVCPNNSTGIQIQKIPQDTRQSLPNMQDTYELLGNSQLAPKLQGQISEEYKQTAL

SMILES	blood T4 concentration
COc1ccc(C2Nc3ccccc3C(=O)N2Cc2ccco2)cc1COc1c(C)cc(NC(C)=O)cc1C (stereo not drawn) [NCGC00242364]	blood T4 concentration lowering effect

same assay, conditions: thyroid stimulating antibody M22-treated mice; cited from earlier work

SMILES	blood T4 concentration
COc1ccc(C2Nc3ccccc3C(=O)N2Cc2ccco2)cc1COc1c(C)cc(NC(C)=O)cc1C (stereo not drawn) [NCGC00242364]	blood T4 concentration lowering effect

biological target: T2, human TSHR (Homo sapiens, UniProt P16473); assay: Antagonist activity using TSH-induced cAMP generation in human TSHR-stably expressing CHO cells; type: cell-based; details: human TSH 50 ng/mL
T2 construct: expressed in transfected cells
T2 sequence (P16473 21-764): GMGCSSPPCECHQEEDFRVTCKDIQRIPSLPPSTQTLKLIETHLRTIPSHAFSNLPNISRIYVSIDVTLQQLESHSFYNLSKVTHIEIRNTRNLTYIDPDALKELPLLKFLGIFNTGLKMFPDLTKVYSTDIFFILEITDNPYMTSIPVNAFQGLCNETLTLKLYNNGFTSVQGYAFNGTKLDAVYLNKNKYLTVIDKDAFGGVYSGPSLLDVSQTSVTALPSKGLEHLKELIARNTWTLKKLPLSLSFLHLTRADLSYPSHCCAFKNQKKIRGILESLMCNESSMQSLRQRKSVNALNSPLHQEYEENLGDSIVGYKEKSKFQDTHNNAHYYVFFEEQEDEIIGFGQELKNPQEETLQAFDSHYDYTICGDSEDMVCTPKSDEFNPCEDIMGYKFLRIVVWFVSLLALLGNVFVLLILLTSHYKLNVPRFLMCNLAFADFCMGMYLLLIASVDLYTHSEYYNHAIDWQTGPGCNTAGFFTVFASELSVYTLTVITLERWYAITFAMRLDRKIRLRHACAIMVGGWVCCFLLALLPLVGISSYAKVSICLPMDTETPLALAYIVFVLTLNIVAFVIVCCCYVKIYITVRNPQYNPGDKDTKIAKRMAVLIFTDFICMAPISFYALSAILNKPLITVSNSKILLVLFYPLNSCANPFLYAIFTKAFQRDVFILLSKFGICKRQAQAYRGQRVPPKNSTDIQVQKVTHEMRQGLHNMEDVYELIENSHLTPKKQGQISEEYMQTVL
Experimental: Measurement of antagonist activity using TSH-induced cAMP generation in human TSHR-stably expressing CHO cells as an indicator
The gene sequence (reference number: NM_000369.2) of a human TSHR was inserted into multiple cloning sites of pcDNA3.1 (+). Prepared plasmid vectors were introduced into CHO cells using a lipofection method, and human TSHR-stably expressing CHO cells were established. Obtained cells were seeded in a 96-well poly-D-lysine-coated plate at 5 × 10^4 cells/well and cultured in an F12 culture medium containing 10%FBS, 400 µg/mL of G418, 50 U/mL of penicillin, and 50 µg/mL of streptomycin under conditions of 37°C and 5% CO2 for one day. After the culture medium was removed, the cells were washed twice with 100 µL of an assay buffer solution (Hanks' Balanced Salt Solution containing 20 mM HEPES and 1 mM IBMX) per well. 30 µL of a test compound-containing assay buffer solution was added to the well and incubated at room temperature for 15 minutes. Next, 30 µL of an assay buffer solution containing human TSH (final concentration: 50 ng/mL, R&D Systems, Inc.) was added thereto and incubated at 37°C for one hour. A supernatant was removed, a Lysis and Detection Buffer 2(Cisbio) was added thereto, and the mixture was incubated at room temperature for one hour to prepare a cell lysate. According to the instruction manual of a cAMP Gs HiRange kit (Cisbio), the cell lysate, d2-labeled cAMP, and anti-cAMP Europium Cryptate labeled antibodies (Cisbio) were reacted together in a 384-well white microplate. Next, fluorescence intensity ratios (measurement wavelengths: 665 nm/620 nm) were measured using a multi-plate reader (PHERAstar FSX, BMG LABTECH, Japan). The fluorescence intensity ratio of each sample was converted to a cAMP content using a standard curve. The cAMP content was converted as a percentage of the control value to calculate a cAMP generation rate. The cAMP generation rates were plotted against the test compound concentrations using Prism (Graph Pad Software Inc.) to calculate IC50 values. The IC50's of the individual test compounds are shown in the above tables. In the tables, IC50 < 0.3 µM was denoted as A, and 0.3 µM ≤ IC50 < 30 µM was denoted as B. Cases where the IC50 values were not calculated for test compounds from which activity was recognized are denoted as C.

SMILES	IC50
CC(C)(OC(=O)Nc1ccc(-c2cccnc2CNC(N)=O)c(Cc2ccccc2C#N)c1F)C(F)F [Example A-37, 1,1-Difluoro-2-methylpropan-2-yl (3-(2-cyanobenzyl)-2-fluoro-4-(2-(ureidomethyl)pyridin-3-yl)phenyl)carbamate]	300 to 30000 nM
NC(=O)NCc1ncccc1-c1ccc(NC(=O)OC2CC(F)(F)C2)c(F)c1Cc1ccccc1F [Example A-6]	< 300 nM
CC(C)(C)OC(=O)Nc1ccc(-c2cccnc2CNC(N)=O)c(CN2CCOCC2)c1F [Example F-4, tert-Butyl (2-fluoro-3-(morpholinomethyl)-4-(2-(ureidomethyl)pyridin-3-yl)phenyl)carbamate]	300 to 30000 nM
CC(C)OC(=O)Nc1ccc(-c2cccnc2CNC(N)=O)c(Cc2ccccc2F)c1F [Example A-22]	< 300 nM
NC(=O)NCc1ncccc1-c1ccc(NC(=O)OCC2CC2(F)F)c(F)c1Cc1ccccc1F (stereo not drawn) [Example A-33]	< 300 nM
CC1(OC(=O)Nc2ccc(-c3cccnc3CNC(N)=O)c(Cc3ccccc3F)c2F)CC1 [Example A-4, 1-Methylcyclopropyl (2-fluoro-3-(2-fluorobenzyl)-4-(2-(ureidomethyl)pyridin-3-yl)phenyl)carbamate]	< 300 nM
CC(C)(C)OC(=O)Nc1ccc(-c2cccnc2CNC(N)=O)c(Cc2c(F)cccc2C#N)c1F [Example A-3, tert-Butyl (3-(2-cyano-6-fluorobenzyl)-2-fluoro-4-(2-(ureidomethyl)pyridin-3-yl)phenyl)carbamate]	300 to 30000 nM
NC(=O)NCc1ncccc1-c1ccc(NC(=O)OCC2(C(F)F)CC2)c(F)c1Cc1ccccc1F [Example A-34]	< 300 nM
C[C@H](OC(=O)Nc1ccc(-c2cccnc2CNC(N)=O)c(Cc2ccccc2F)c1F)C(F)(F)F [Example A-23]	< 300 nM
Cc1ccnc(CNC(N)=O)c1-c1ccc(NC(=O)OC(C)(C)C)c(F)c1Cc1ccccc1 [Example A-9, tert-Butyl (3-benzyl-2-fluoro-4-(4-methyl-2-(ureidomethyl)pyridin-3-yl)phenyl)carbamate]	300 to 30000 nM
CC(C)(C)OC(=O)Nc1ccc(-c2ccnnc2CNC(N)=O)c(Oc2ccccc2F)c1F [Example D-1, tert-Butyl (2-fluoro-3-(2-fluorophenoxy)-4-(3-(ureidomethyl)pyridazin-4-yl)phenyl)carbamate]	300 to 30000 nM
CC(C)(C)OC(=O)Nc1ccc(-c2ccnnc2CNC(N)=O)c(Cc2ccccc2F)c1F [Example C-1, tert-Butyl (2-fluoro-3-(2-fluorobenzyl)-4-(3-(ureidomethyl)pyridazin-4-yl)phenyl)carbamate]	< 300 nM
CC1(OC(=O)Nc2ccc(-c3ccnnc3CNC(N)=O)c(Cc3ccccc3F)c2F)CC1 [Example C-3, 1-Methylcyclopropyl (2-fluoro-3-(2-fluorobenzyl)-4-(3-(ureidomethyl)pyridazin-4-yl)phenyl)carbamate]	300 to 30000 nM
C[C@H](OC(=O)Nc1ccc(-c2cccnc2CCC(N)=O)c(C(=O)c2ccccc2F)c1F)C(F)(F)F [Example E-4, (S)-1,1,1-Trifluoropropan-2-yl (4-(2-(3-amino-3-oxopropyl)pyridin-3-yl)-2-fluoro-3-(2-fluorobenzoyl)phenyl)carbamate]	< 300 nM
COC[C@H](C)OC(=O)Nc1ccc(-c2cccnc2CNC(N)=O)c(Cc2ccccc2F)c1F [Example A-25, (S)-1-Methoxypropan-2-yl (2-fluoro-3-(2-fluorobenzyl)-4-(2-(ureidomethyl)pyridin-3-yl)phenyl)carbamate]	300 to 30000 nM
CC(C)(C)OC(=O)Nc1ccc(-c2ccnnc2CCC(N)=O)c(Oc2ccccc2F)c1F [Example D-3, tert-Butyl (4-(3-(3-amino-3-oxopropyl)pyridazin-4-yl)-2-fluoro-3-(2-fluorophenoxy)phenyl)carbamate]	< 300 nM
C[C@@H](OC(=O)Nc1ccc(-c2cccnc2CCC(N)=O)c(Cc2ncccc2F)c1F)C1CC1 [Example F-3, (R)-1-Cyclopropylethyl (4-(2-(3-amino-3-oxopropyl)pyridin-3-yl)-2-fluoro-3-((3-fluoropyridin-2-yl)methyl)phenyl)carbamate]	< 300 nM
CC(C)(C)OC(=O)Nc1ccc(-c2cccnc2CNC(N)=O)c(Cc2ccccc2F)c1F [Example A-1, tert-Butyl (2-fluoro-3-(2-fluorobenzyl)-4-(2-(ureidomethyl)pyridin-3-yl)phenyl)carbamate]	< 300 nM
CC(C)(C)OC(=O)Nc1ccc(-c2cccnc2CNC(N)=O)c(Oc2ccccc2)c1F [Example B-1, tert-Butyl (2-fluoro-3-phenoxy-4-(2-(ureidomethyl)pyridin-3-yl)phenyl)carbamate]	< 300 nM
C[C@H](OC(=O)Nc1ccc(-c2cccnc2CCC(N)=O)c(C(=O)c2ccccc2F)c1F)C1CC1 [Example E-5, (S)-1-Cyclopropylethyl (4-(2-(3-amino-3-oxopropyl)pyridin-3-yl)-2-fluoro-3-(2-fluorobenzoyl)phenyl)carbamate]	< 300 nM
CC1(C(=O)Nc2ccc(-c3cccnc3CNC(N)=O)c(Cc3ccccc3F)c2F)CC1 [Example G-1, N-(2-Fluoro-3-(2-fluorobenzyl)-4-(2-(ureidomethyl)pyridin-3-yl)phenyl)-1-methylcyclopropane-1-carboxamide]	300 to 30000 nM
CC(C)(C#N)COC(=O)Nc1ccc(-c2cccnc2CNC(N)=O)c(Cc2ccccc2F)c1F [Example A-7]	< 300 nM
COc1ccccc1Cc1c(-c2cccnc2CNC(N)=O)ccc(NC(=O)OC(C)(C)C)c1F [Example A-17, tert-Butyl (2-fluoro-3-(2-methoxybenzyl)-4-(2-(ureidomethyl)pyridin-3-yl)phenyl)carbamate]	300 to 30000 nM
CC(C)(C)OC(=O)Nc1ccc(-c2cccnc2CCC(N)=O)c(C(=O)c2ccccc2C(F)(F)F)c1F [Example E-8, tert-Butyl (4-(2-(3-amino-3-oxopropyl)pyridin-3-yl)-2-fluoro-3-(2-(trifluoromethyl)benzoyl)phenyl)carbamate]	< 300 nM
CC(C)(COCc1ccccc1)OC(=O)Nc1ccc(-c2cccnc2CNC(N)=O)c(Cc2ccccc2F)c1F [Example A-20, 1-(Benzyloxy)-2-methylpropan-2-yl (2-fluoro-3-(2-fluorobenzyl)-4-(2-(ureidomethyl)pyridin-3-yl)phenyl)carbamate]	< 300 nM
